Experimental data taken from DBAASP.
Values after ≈ are worked out from the molar mass of the structure shown. Values joined by “and” are separate entries in the source; they are usually repeats but may differ in a detail not shown here. Equal values may be shown once. Values belong to the compound of their own block, whether it stands above or below them.

Experiments:
Assay in all cases: ≥ marks a high value that may be exact or a test limit, other limits are often not marked, values filed in µg/mL are converted to µM
Streptococcus sanguinis = tested on: Streptococcus sanguinis
Staphylococcus aureus = tested on: Staphylococcus aureus
[1] = tested on: Candida albicans JLC 30364
[2] = tested on: Bacillus subtilis ATCC 6633
[3] = tested on: Candida albicans ATCC 18804
[4] = tested on: Pseudomonas aeruginosa DFU3
[5] = tested on: Enterococcus faecalis ATCC 19433
[6] = tested on: Escherichia coli ATCC 11775
[7] = tested on: Bacillus subtilis ATCC 6051
[8] = tested on: Salmonella enterica subsp. enterica serovar Typhi ATCC 6399
[9] = tested on: Mycobacterium tuberculosis
[10] = tested on: Staphylococcus aureus ATCC 29213
Streptococcus agalactiae = tested on: Streptococcus agalactiae
Shigella flexneri = tested on: Shigella flexneri
[11] = tested on: Staphylococcus epidermidis SAM 0020
[12] = tested on: Pseudomonas aeruginosa ATCC 10145
[13] = tested on: Staphylococcus aureus IAM 1098
[14] = tested on: Listeria monocytogenes ATCC 7644
[15] = tested on: Mycobacterium tuberculosis H37Rv
[16] = tested on: Pseudomonas aeruginosa CICC 21630
[17] = tested on: Escherichia coli CVCC 1515
[18] = tested on: Listeria ivanovii ATCC 19119
[19] = tested on: Salmonella enterica subsp. enterica serovar Pullorum CVCC 1802
[20] = tested on: Staphylococcus aureus ATCC 43300
[21] = tested on: Streptococcus suis CVCC 606
[22] = tested on: Salmonella enterica subsp. enterica serovar Choleraesuis CVCC 503
[23] = tested on: Salmonella enterica subsp. enterica serovar Typhimurium ATCC 14028
[24] = tested on: Pseudomonas aeruginosa CICC 10419
[25] = tested on: Escherichia coli O157:H7 CICC 21530
[26] = tested on: Staphylococcus aureus ATCC 25923
[27] = tested on: Salmonella enterica subsp. enterica serovar Enteritidis CVCC 3377
[28] = tested on: Escherichia coli CVCC 195
[29] = tested on: Salmonella enterica subsp. enterica serovar Pullorum CVCC 1789
[30] = tested on: Candida albicans CGMCC 2.2411
[31] = tested on: Enterococcus faecium CMCC 1.2136
[32] = tested on: Listeria monocytogenes EGD
[33] = tested on: Pseudomonas aeruginosa ATCC 27853
[34] = tested on: Escherichia coli ATCC 25922
Escherichia coli D21 = tested on: Escherichia coli D21
Bacillus megaterium Bm11 = tested on: Bacillus megaterium Bm11
Escherichia coli ML-35 = tested on: Escherichia coli ML-35
[35] = tested on: Staphylococcus epidermidis ATCC 12228
[36] = tested on: Serratia marcescens ATCC 8100

Compound: NC(=O)[C@H](Cc1ccccc1)NC(=O)[C@H](Cc1ccccc1)NC(=O)[C@@H](N)Cc1ccccc1 [FFF]
MIC (Streptococcus sanguinis): ≥ 1090 µM
MIC (Staphylococcus aureus): > 1090 µM

Compound: CC(C)[C@H](NC(=O)CNC(=O)[C@H](CC(N)=O)NC(=O)[C@H](CCCN=C(N)N)NC(=O)[C@H](Cc1ccc(O)cc1)NC(=O)[C@@H](NC(=O)[C@@H](NC(=O)[C@H](CC(N)=O)NC(=O)[C@H](Cc1c[nH]c2ccccc12)NC(=O)[C@H](Cc1ccccc1)NC(=O)CN)C(C)C)C(C)C)C(=O)N[C@@H](CCCN=C(N)N)C(=O)N[C@H](C(=O)N[C@@H](Cc1cnc[nH]1)C(=O)N[C@@H](CCCN=C(N)N)C(=O)N[C@@H](CCCN=C(N)N)C(=O)N[C@@H](CC(N)=O)C(=O)O)C(C)C [GFWNVVYRNGVRVHRRN]
MIC [16]: ≥ 60.1 µM
MIC [17]: ≥ 60.1 µM
MIC [18]: ≥ 60.1 µM
MIC [19]: ≥ 60.1 µM
MIC [20]: > 60.1 µM
MIC [21]: ≥ 60.1 µM
MIC [22]: ≥ 60.1 µM
MIC [2]: 30.1 µM (≈ 64 µg/mL)
MIC [23]: 60.1 µM (≈ 128 µg/mL)
MIC [24]: ≥ 60.1 µM
MIC [25]: 30.1 µM (≈ 64 µg/mL)
MIC [26]: 0.939 µM (≈ 2 µg/mL)
MIC [27]: 1.88 µM (≈ 4 µg/mL)
MIC [28]: 30.1 µM (≈ 64 µg/mL)
MIC [29]: ≥ 60.1 µM
MIC [30]: ≥ 60.1 µM
MIC [31]: 30.1 µM (≈ 64 µg/mL)

Compound: NC(N)=NCCC[C@H](NC(=O)[C@@H](N)CCCN=C(N)N)C(=O)N[C@@H](CCCN=C(N)N)C(=O)N1CCC[C@H]1C(=O)N[C@@H](CCCN=C(N)N)C(=O)N1CCC[C@H]1C(=O)N1CCC[C@H]1C(=O)N[C@@H](Cc1ccc(O)cc1)C(=O)N[C@@H](Cc1c[nH]c2ccccc12)C(=O)N1CCC[C@H]1C(=O)N[C@@H](CCCN=C(N)N)C(=O)N1CCC[C@H]1C(=O)N[C@@H](CCCN=C(N)N)C(=O)N1CCC[C@H]1C(=O)N1CCC[C@H]1C(=O)O [RRRPRPPYWPRPRPP]
MIC (Escherichia coli D21): 2 µM (≈ 3.97 µg/mL)
MIC (Bacillus megaterium Bm11): 16 µM (≈ 31.7 µg/mL)
MIC [23]: 16 µM (≈ 31.7 µg/mL)
MIC (Escherichia coli ML-35): 4 µM (≈ 7.94 µg/mL)
MIC [35]: > 64 µM
MIC [36]: 8 µM (≈ 15.9 µg/mL)

Next, values leading:

MIC [1]: ≥ 32 µM
MIC [2]: 1.6 µM and 4 µM
Compound: CC(=O)N[C@@H](Cc1ccccc1)C(=O)N[C@@H](CCCCN)C(=O)N[C@@H](CCCCN)C(=O)N[C@@H](CC(C)C)C(=O)N[C@@H](CCCCN)C(=O)N[C@@H](CCCCN)C(=O)N[C@@H](CC(C)C)C(=O)N[C@@H](Cc1ccccc1)C(=O)N[C@@H](CO)C(=O)N[C@@H](CCCCN)C(=O)N[C@@H](CC(C)C)C(=O)N[C@@H](Cc1c[nH]c2ccccc12)C(=O)N[C@@H](CC(N)=O)C(=O)N[C@@H](Cc1c[nH]c2ccccc12)C(=O)N[C@@H](CCCCN)C(N)=O [FKKLKKLFSKLWNWK]

MIC [3]: 19.1 µM (≈ 49.9 µg/mL)
MIC [4]: 18.8 µM and 25 µM
MIC [5]: 2.4 µM (≈ 6.27 µg/mL)
MIC [6]: 19.1 µM (≈ 49.9 µg/mL)
MIC [7]: 4.8 µM (≈ 12.5 µg/mL)
MIC [8]: ≥ 37.5 µM
MIC [9]: ≥ 33.1 µM
MIC [10]: 6.2 µM and > 3.1 µM
MIC (Streptococcus agalactiae): 18.8 µM (≈ 49.1 µg/mL)
MIC [2]: ≥ 37.5 µM
MIC (Shigella flexneri): ≥ 37.5 µM
MIC [11]: 4.8 µM (≈ 12.5 µg/mL)
MIC [12]: ≥ 38.2 µM
MIC [13]: 2.4 µM (≈ 6.27 µg/mL)
MIC [14]: 18.8 µM (≈ 49.1 µg/mL)
MIC [15]: 22.1 µM (≈ 57.7 µg/mL)
Compound: CC[C@H](C)[C@H](NC(=O)[C@H](CC(C)C)NC(=O)[C@H](CCCCN)NC(=O)[C@H](CC(C)C)NC(=O)[C@H](C)NC(=O)CNC(=O)[C@H](CCCCN)NC(=O)[C@H](C)NC(=O)[C@H](CC(C)C)NC(=O)[C@H](C)NC(=O)CNC(=O)[C@H](Cc1c[nH]c2ccccc12)NC(=O)[C@@H](N)Cc1ccccc1)C(=O)N1CCC[C@H]1C(=O)N[C@@H](CO)C(=O)N[C@@H](CC(C)C)C(=O)N[C@@H](Cc1ccccc1)C(=O)N[C@@H](CO)C(=O)N[C@@H](CO)C(=O)N[C@@H](Cc1ccccc1)C(=O)N[C@@H](CO)C(=O)N[C@@H](CCCCN)C(=O)N[C@@H](CCCCN)C(=O)N[C@@H](CC(=O)O)C(=O)O [FWGALAKGALKLIPSLFSSFSKKD]

MIC [26]: 128 µM (≈ 289 µg/mL)
MIC [32]: ≥ 128 µM
MIC [33]: 128 µM (≈ 289 µg/mL)
MIC [34]: 128 µM (≈ 289 µg/mL)
Compound: CC[C@H](C)[C@H](NC(=O)[C@H](C)NC(=O)[C@H](CCCN=C(N)N)NC(=O)[C@H](CCCCN)NC(=O)[C@H](C)NC(=O)[C@H](CCC(N)=O)NC(=O)[C@H](CC(C)C)NC(=O)[C@H](CCCCN)NC(=O)[C@H](Cc1ccccc1)NC(=O)[C@H](CC(C)C)NC(=O)[C@H](CCCCN)NC(=O)[C@H](Cc1ccccc1)NC(=O)[C@@H](NC(=O)[C@@H](NC(=O)[C@H](CCCCN)NC(=O)[C@H](C)NC(=O)[C@H](C)NC(=O)[C@@H](N)CCCCN)[C@@H](C)O)C(C)C)C(=O)N[C@@H](CCC(=O)O)C(=O)N[C@@H](C)C(N)=O [KAAKTVFKLFKLQAKRAIEA]
